Data published in US7108865B2, “Controlled-release dosage forms of azithromycin” (Pfizer Inc, priority 1994, dated 2006).

Settings: pH 7
Source text: A third class of azithromycin sustained-release dosage forms includes the osmotic delivery devices or “osmotic pumps” as they are known in the art. Osmotic pumps comprise a core containing an osmotically effective composition surrounded by a semipermeable membrane. The term “semipermeable” in this context means that water can pass through the membrane, but solutes dissolved in water cannot. In use, when placed in an aqueous environment, the device imbibes water due to the osmotic activity of the core composition. […] The osmotically effective composition includes water-soluble species, which generate a colloidal osmotic pressure, and water-swellable polymers.

| solubility | osmotic pressure corresponding to the solubility | Compound |
| --- | --- | --- |
| much lower |  | CC[C@H]1OC(=O)[C@H](C)[C@@H](O[C@H]2C[C@@](C)(OC)[C@@H](O)[C@H](C)O2)[C@H](C)[C@@H](O[C@@H]2O[C@H](C)C[C@H](N(C)C)[C@H]2O)[C@](C)(O)C[C@@H](C)CN(C)[C@H](C)[C@@H](O)[C@]1(C)O [azithromycin dihydrate] |
| about 100 mg/ml | about 3 atmospheres | Azithromycin fumarate |
